{"source": "patent US20060135480A1", "about": "“Derivatives of succinic and glutaric acids and analogs thereof useful as inhibitors of phex” (Enobia Pharma, priority 2002, published 2006)", "key": {"rat mandibular defect": {"system": "rat mandibular defect", "test": "Bone lesion repair in rat mandibular defect model (hydroxyapatite particles soaked in inhibitor)", "type": "in vivo", "conditions": "for bone formation (scanning electron microscopy, % of total defect area): 14 days of healing", "method": "Osteogenic properties of PHEX inhibitors can be shown in a model of rat mandibular defect. For example, a 2 mm size bone defect was created in the rat mandible as described previously (Vu et al., 1999). Rats were anesthetized and the vestibular surface of the right mandibular ramus was exposed as follow: an incision was made through the skin along an imaginary line forming a 90° angle with the lower lip to access the muscle layer. A scalpel blade was used to make an incision parallel to the fibers of the deep portion of masseter muscle, about 2 mm posterior to the facial artery (largest branch of the external carotid), in the portion where it gives rise to the labial mandibular artery. The periosteum was elevated and the underlying bony surface exposed. A 2 mm×2 mm bony window was drilled between the second and third molar using a slow-speed dental drill with a carbide round burr size 1.4 mm (Brasseler) and a drill size 2 mm (Straumann Canada Ltd). Saline irrigation was used during the drilling. Porous hydroxyapatite particles (Fin-Ceramica Faenza s.r.l.) with pore size ranged from 450 to 600 μm were accommodated in the bony hole and pushed into it. The particles had been incubated previously in solutions of varying concentrations of PHEX inhibitor or vehicle for 16 to 24 hours at 4° C. Once the bony window was filled the lesion was covered with a membrane of hydroxyapatite (Fin-Ceramica Faenza s.r.l.) which was fixed to the surrounding bone surface with topical tissue adhesive. The muscle fibers were carefully repositioned on the mandible and sutured with absorbable surgical sutures (Chromic Gut, Ethicon Inc.). The skin was sutured for total coverage with silk sutures (Sherwood Davis & Geck, Wayne). After 7 days of treatment the bone lesion was exposed and varying concentrations of PHEX inhibitor or vehicle was reapplied to hydroxyapatite particles. Treatment was continued for another 7 days.\nAfter the 14 day healing period, bone formation at the defect was evaluated by scanning electron microscopy and microcomputed tomography. Animals were sacrificed by intravascular perfusion through the left ventricle with 4% paraformaldehyde and 0.1% glutaraldehyde solution. Treated hemimandibles were taken, immersed in the fixative overnight at 4° C. then washed and kept in 0.1 M cacodylate buffer pH 8.0 until analysis. Specimens for quantification by scanning electron microscopy were dehydrated in a graded alcohol series and embedded in LR White resin (Marivac) for further sectioning along their longitudinal axis. […] Amount of bone tissue present in the sections was quantified by manual tracing using the MOP-3 system (Carl Zeiss) and was expressed as a percentage of the total defect area."}, "sPHEX": {"target": "T1, sPHEX (Homo sapiens, UniProt P78562)", "T1 construct": "The soluble form of the metallopeptidase PHEX (sPHEX) was purified to homogeneity; made in house", "T1 sequence (P78562 53-749 limits assumed)": "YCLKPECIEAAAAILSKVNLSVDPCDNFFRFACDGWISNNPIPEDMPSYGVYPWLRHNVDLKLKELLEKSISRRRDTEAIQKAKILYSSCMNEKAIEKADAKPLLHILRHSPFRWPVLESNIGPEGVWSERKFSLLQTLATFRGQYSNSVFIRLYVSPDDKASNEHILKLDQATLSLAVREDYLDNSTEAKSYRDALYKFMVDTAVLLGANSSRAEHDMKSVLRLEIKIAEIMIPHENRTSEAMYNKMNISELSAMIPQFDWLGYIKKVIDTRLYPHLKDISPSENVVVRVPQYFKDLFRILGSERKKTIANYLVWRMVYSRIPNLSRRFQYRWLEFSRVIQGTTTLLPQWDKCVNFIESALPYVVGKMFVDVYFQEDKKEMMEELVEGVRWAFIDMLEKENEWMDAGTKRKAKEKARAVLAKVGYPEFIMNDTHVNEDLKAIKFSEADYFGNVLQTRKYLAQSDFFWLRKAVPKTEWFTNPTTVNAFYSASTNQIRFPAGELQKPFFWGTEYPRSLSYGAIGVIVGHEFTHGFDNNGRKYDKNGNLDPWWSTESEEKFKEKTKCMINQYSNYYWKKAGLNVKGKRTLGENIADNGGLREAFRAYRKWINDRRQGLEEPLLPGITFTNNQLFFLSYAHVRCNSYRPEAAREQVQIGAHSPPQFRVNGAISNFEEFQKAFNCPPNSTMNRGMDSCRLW", "test": "sPHEX inhibitor IC50 determination using a fluorogenic substrate (Abz-GFSDYK-Dnp, S3)", "type": "biochemical", "conditions": "fluorogenic substrate 20 μM, 100 ng sPHEX, pH 6.5", "method": "The soluble form of the metallopeptidase PHEX (sPHEX) was purified to homogeneity according to the methods of Boileau and Crine (WO 00/50580). sPHEX quantity was measured with the Bradford assay (BioRad) using BSA as a standard.\nsPHEX activity was determined using a fluorogenic substrate in which an increase of fluorescence was proportional to substrate conversion to products.\nS3 was synthesized at Dr. Gilles Lajoie's laboratories (University of Western Ontario, Canada) by standard solid phase peptide synthesis. The fluorescent reaction product was excited at 320 nm to fluoresce at 420 nm. Fluorescence was recorded at 420 nm every five minutes over a one-hour period on a fluorescence plate reader (Perkin-Elmer, HTS-7000) to calculate the initial rate of the reaction. Typically, the reaction was carried out in 200 μl of buffer M (50 mM Mes(NaOH) pH 6.5, 150 mM NaCl) containing 100 ng of purified sPHEX and 20 μM of fluorigenic substrate to initiate the reaction. Enzymatic activity was determined by subtracting either the initial rate of substrate in buffer (solvolysis), or the typical reaction rate in which 5 mM EDTA was added prior to initiating the reaction.\nsPHEX inhibitor IC50 determinations were done using the tested inhibitor at various concentrations coming from a serial dilution (usually ranging from 10^−3 M to 10^−12 M) in the reaction described above. IC50 values were calculated using the iterative four parameters non-linear regression formula from the GraphPad™ software (Prism)."}}, "data": [{"smiles": "O=C(O)CC(CC(=O)NO)C(=O)NCCc1ccc(-c2ccccc2)cc1", "note": "(centres unmarked) [Example 126, 3-(2-Biphenyl-4-yl-ethylcarbamoyl)4-hydroxycarbamoyl-butyric acid]", "values": [{"measurement": "bone formation (scanning electron microscopy, % of total defect area)", "setting": "rat mandibular defect; 1×10^−5 M on hydroxyapatite particles, compared to saline", "result": "reduced significantly"}, {"measurement": "bone formation (microcomputed tomography 3D reconstruction)", "setting": "rat mandibular defect; high inhibitor dose, one representative specimen per group", "result": "reduced bone formation"}, {"measurement": "bone around particles (microcomputed tomography 3D reconstruction)", "setting": "rat mandibular defect; low dose of inhibitor vs saline, one representative specimen per group", "result": "more bone"}, {"measurement": "bone formation (scanning electron microscopy, % of total defect area)", "setting": "rat mandibular defect; lower concentrations on hydroxyapatite particles", "result": "significantly stimulated"}, {"measurement": "IC50", "setting": "sPHEX", "result": 17, "unit": "nM"}]}]}
